# The source made the active and inactive calls. No cut-off for these calls is given here.
# Assays:
# Malme-3M = test: Growth inhibition of human MALME-3M cells at 10 uM after 48 hrs; assay type: functional
# HCT-15 = test: Growth inhibition of human HCT15 cells at 10 uM after 48 hrs; assay type: functional
# MDA-MB-231 = test: Growth inhibition of human MDA-MB-231 cells at 10 uM after 48 hrs; assay type: functional
# Pseudomonas aeruginosa = test: Antimicrobial activity against Pseudomonas aeruginosa assessed as inhibition zone at 200 ug/disk after 24 hrs by disc-diffusion method; assay type: functional; conditions: read-out: IZ
# Escherichia coli = test: Antimicrobial activity against Escherichia coli assessed as inhibition zone at 200 ug/disk after 24 hrs by disc-diffusion method; assay type: functional; conditions: read-out: IZ
# HT-29 = test: Growth inhibition of human HT-29 cells at 10 uM after 48 hrs; assay type: functional
# MDA-MB-435 = test: Growth inhibition of human MDA-MB-435 cells at 10 uM after 48 hrs; assay type: functional
# SF-295 = test: Growth inhibition of human SF295 cells at 10 uM after 48 hrs; assay type: functional
# SF-539 = test: Growth inhibition of human SF539 cells at 10 uM after 48 hrs; assay type: functional
# T47D = test: Growth inhibition of human T47D cells at 10 uM after 48 hrs; assay type: functional
# NCI/ADR-RES = test: Growth inhibition of human NCI-ADR-RES cells at 10 uM after 48 hrs; assay type: functional
# TK-10 = test: Growth inhibition of human TK10 cells at 10 uM after 48 hrs; assay type: functional
# Staphylococcus aureus = test: Antimicrobial activity against Staphylococcus aureus assessed as inhibition zone at 200 ug/disk after 24 hrs by disc-diffusion method; assay type: functional; conditions: read-out: IZ
# ACHN = test: Growth inhibition of human ACHN cells at 10 uM after 48 hrs; assay type: functional
# OVCAR-3 = test: Growth inhibition of human OVCAR3 cells at 10 uM after 48 hrs; assay type: functional
# SK-MEL-5 = test: Growth inhibition of human SK-MEL-5 cells at 10 uM after 48 hrs; assay type: functional
# CAKI-1 = test: Growth inhibition of human CAKI-1 cells at 10 uM after 48 hrs; assay type: functional
# SN12C = test: Growth inhibition of human SN12C cells at 10 uM after 48 hrs; assay type: functional
# OVCAR-5 = test: Growth inhibition of human OVCAR5 cells at 10 uM after 48 hrs; assay type: functional
# A549 = test: Growth inhibition of human A549 cells at 10 uM after 48 hrs; assay type: functional
# HL-60(TB) = test: Growth inhibition of human HL-60(TB) cells at 10 uM after 48 hrs; assay type: functional
# SNB-75 = test: Growth inhibition of human SNB75 cells at 10 uM after 48 hrs; assay type: functional
# CCRF-CEM = test: Growth inhibition of human CCRF-CEM cells at 10 uM after 48 hrs; assay type: functional
# HCT-116 = test: Growth inhibition of human HCT116 cells at 10 uM after 48 hrs; assay type: functional
# A498 = test: Growth inhibition of human A498 cells at 10 uM after 48 hrs; assay type: functional
# Dihydrofolate reductase = molecular target: T1, Dihydrofolate reductase (Bos taurus, UniProt P00376); test: Inhibition of bovine liver DHFR
# T1 sequence (P00376 whole entry): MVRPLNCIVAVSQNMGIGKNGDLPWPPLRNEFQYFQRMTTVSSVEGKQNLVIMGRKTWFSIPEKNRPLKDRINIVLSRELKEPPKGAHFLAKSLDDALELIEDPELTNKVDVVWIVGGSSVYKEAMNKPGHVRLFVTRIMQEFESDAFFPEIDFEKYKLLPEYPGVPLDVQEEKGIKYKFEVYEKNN
# K562 = test: Growth inhibition of human K562 cells at 10 uM after 48 hrs; assay type: functional
# UO-31 = test: Growth inhibition of human UO31 cells at 10 uM after 48 hrs; assay type: functional
# BT-549 = test: Growth inhibition of human BT549 cells at 10 uM after 48 hrs; assay type: functional
# UACC-257 = test: Growth inhibition of human UACC257 cells at 10 uM after 48 hrs; assay type: functional
# U-251 = test: Growth inhibition of human U251 cells at 10 uM after 48 hrs; assay type: functional
# MCF7 = test: Growth inhibition of human MCF7 cells at 10 uM after 48 hrs; assay type: functional
# M14 = test: Growth inhibition of human M14 cells at 10 uM after 48 hrs; assay type: functional
# HCC 2998 = test: Growth inhibition of human HCC2998 cells at 10 uM after 48 hrs; assay type: functional
# MOLT-4 = test: Growth inhibition of human MOLT4 cells at 10 uM after 48 hrs; assay type: functional
# COLO 205 = test: Growth inhibition of human COLO205 cells at 10 uM after 48 hrs; assay type: functional
# PC-3 = test: Growth inhibition of human PC3 cells at 10 uM after 48 hrs; assay type: functional
# NCI-H460 = test: Growth inhibition of human NCI-H460 cells at 10 uM after 48 hrs; assay type: functional
# SF-268 = test: Growth inhibition of human SF268 cells at 10 uM after 48 hrs; assay type: functional
# LOX IMVI = test: Growth inhibition of human LOXIMVI cells at 10 uM after 48 hrs; assay type: functional
# OVCAR-4 = test: Growth inhibition of human OVCAR4 cells at 10 uM after 48 hrs; assay type: functional
# MDA-MB-468 = test: Growth inhibition of human MDA-MB-468 cells at 10 uM after 48 hrs; assay type: functional
# Candida albicans = test: Antimicrobial activity against Candida albicans assessed as inhibition zone at 200 ug/disk after 24 hrs by disc-diffusion method; assay type: functional; conditions: read-out: IZ
# NCI-H23 = test: Growth inhibition of human NCI-H23 cells at 10 uM after 48 hrs; assay type: functional
# OVCAR-8 = test: Growth inhibition of human OVCAR8 cells at 10 uM after 48 hrs; assay type: functional
# NCI-H226 = test: Growth inhibition of human NCI-H226 cells at 10 uM after 48 hrs; assay type: functional
# Bacillus subtilis = test: Antimicrobial activity against Bacillus subtilis assessed as inhibition zone at 200 ug/disk after 24 hrs by disc-diffusion method; assay type: functional; conditions: read-out: IZ
# RPMI-8226 = test: Growth inhibition of human RPMI8226 cells at 10 uM after 48 hrs; assay type: functional
# SNB-19 = test: Growth inhibition of human SNB19 cells at 10 uM after 48 hrs; assay type: functional
# KM12 = test: Growth inhibition of human KM12 cells at 10 uM after 48 hrs; assay type: functional
# SR = test: Growth inhibition of human SR cells at 10 uM after 48 hrs; assay type: functional
# NCI-H522 = test: Growth inhibition of human NCI-H522 cells at 10 uM after 48 hrs; assay type: functional
# RXF 393 = test: Growth inhibition of human RXF393 cells at 10 uM after 48 hrs; assay type: functional
# SW-620 = test: Growth inhibition of human SW620 cells at 10 uM after 48 hrs; assay type: functional
# Hs-578T = test: Growth inhibition of human Hs 578T cells at 10 uM after 48 hrs; assay type: functional
# UACC-62 = test: Growth inhibition of human UACC62 cells at 10 uM after 48 hrs; assay type: functional
# 786-0 = test: Growth inhibition of human 786-0 cells at 10 uM after 48 hrs; assay type: functional
# HOP-92 = test: Growth inhibition of human HOP92 cells at 10 uM after 48 hrs; assay type: functional
smiles,measurement,setting,value
COc1cc2nc(Sc3sc(N)nc3C)n(-c3ccc(Cl)cc3)c(=O)c2cc1OC,growth inhibition (GI),Malme-3M,inactive
same,growth inhibition (GI),HCT-15,inactive
same,growth inhibition (GI),MDA-MB-231,inactive
same,zone of inhibition at 200 µg/disc,Pseudomonas aeruginosa,8 mm
same,zone of inhibition at 200 µg/disc,Escherichia coli,8 mm
same,growth inhibition (GI),HT-29,inactive
same,growth inhibition (GI),MDA-MB-435,inactive
same,growth inhibition (GI),SF-295,inactive
same,growth inhibition (GI),SF-539,inactive
same,growth inhibition (GI),T47D,inactive
same,growth inhibition (GI),NCI/ADR-RES,inactive
same,growth inhibition (GI),TK-10,inactive
same,zone of inhibition at 200 µg/disc,Staphylococcus aureus,18 mm
same,growth inhibition (GI),ACHN,inactive
same,growth inhibition (GI),OVCAR-3,inactive
same,growth inhibition (GI),SK-MEL-5,inactive
same,growth inhibition (GI),CAKI-1,inactive
same,growth inhibition (GI),SN12C,inactive
same,growth inhibition (GI),OVCAR-5,inactive
same,growth inhibition (GI),A549,inactive
same,growth inhibition (GI),HL-60(TB),inactive
same,growth inhibition (GI),SNB-75,inactive
same,growth inhibition (GI),CCRF-CEM,inactive
same,growth inhibition (GI),HCT-116,inactive
same,growth inhibition (GI),A498,inactive
same,IC50,Dihydrofolate reductase,2 µM
same,growth inhibition (GI),K562,inactive
same,growth inhibition (GI),UO-31,inactive
same,growth inhibition (GI),BT-549,inactive
same,growth inhibition (GI),UACC-257,inactive
same,growth inhibition (GI),U-251,inactive
same,growth inhibition (GI),MCF7,inactive
same,growth inhibition (GI),M14,inactive
same,growth inhibition (GI),HCC 2998,inactive
same,growth inhibition (GI),MOLT-4,inactive
same,growth inhibition (GI),COLO 205,inactive
same,growth inhibition (GI),PC-3,inactive
same,growth inhibition (GI),NCI-H460,inactive
same,growth inhibition (GI),SF-268,inactive
same,growth inhibition (GI),LOX IMVI,inactive
same,growth inhibition (GI),OVCAR-4,inactive
same,growth inhibition (GI),MDA-MB-468,inactive
same,zone of inhibition at 200 µg/disc,Candida albicans,8 mm
same,growth inhibition (GI),NCI-H23,inactive
same,growth inhibition (GI),OVCAR-8,inactive
same,growth inhibition (GI),NCI-H226,inactive
same,zone of inhibition at 200 µg/disc,Bacillus subtilis,14 mm
same,growth inhibition (GI),RPMI-8226,inactive
same,growth inhibition (GI),SNB-19,inactive
same,growth inhibition (GI),KM12,inactive
same,growth inhibition (GI),SR,inactive
same,growth inhibition (GI),NCI-H522,inactive
same,growth inhibition (GI),RXF 393,inactive
same,growth inhibition (GI),SW-620,inactive
same,growth inhibition (GI),Hs-578T,inactive
same,growth inhibition (GI),UACC-62,inactive
same,growth inhibition (GI),786-0,inactive
same,growth inhibition (GI),HOP-92,inactive
Cc1nc(N)sc1Sc1nc2ccc(Cl)cc2c(=O)n1-c1ccc(Cl)cc1,growth inhibition (GI),Malme-3M,inactive
same,growth inhibition (GI),HCT-15,inactive
same,growth inhibition (GI),MDA-MB-231,inactive
same,zone of inhibition at 200 µg/disc,Pseudomonas aeruginosa,8 mm
same,zone of inhibition at 200 µg/disc,Escherichia coli,8 mm
same,growth inhibition (GI),HT-29,inactive
same,growth inhibition (GI),MDA-MB-435,inactive
same,growth inhibition (GI),SF-295,inactive
same,growth inhibition (GI),SF-539,inactive
same,growth inhibition (GI),T47D,inactive
same,growth inhibition (GI),NCI/ADR-RES,inactive
same,growth inhibition (GI),TK-10,inactive
same,zone of inhibition at 200 µg/disc,Staphylococcus aureus,8 mm
same,growth inhibition (GI),ACHN,inactive
same,growth inhibition (GI),OVCAR-3,inactive
same,growth inhibition (GI),SK-MEL-5,inactive
same,growth inhibition (GI),CAKI-1,inactive
same,growth inhibition (GI),SN12C,inactive
same,growth inhibition (GI),OVCAR-5,inactive
same,growth inhibition (GI),A549,inactive
same,growth inhibition (GI),HL-60(TB),inactive
same,growth inhibition (GI),SNB-75,inactive
same,growth inhibition (GI),CCRF-CEM,inactive
same,growth inhibition (GI),HCT-116,inactive
same,growth inhibition (GI),A498,inactive
same,IC50,Dihydrofolate reductase,8 µM
same,growth inhibition (GI),K562,inactive
same,growth inhibition (GI),UO-31,inactive
same,growth inhibition (GI),BT-549,inactive
same,growth inhibition (GI),UACC-257,inactive
same,growth inhibition (GI),U-251,inactive
same,growth inhibition (GI),MCF7,inactive
same,growth inhibition (GI),M14,inactive
same,growth inhibition (GI),HCC 2998,inactive
same,growth inhibition (GI),MOLT-4,inactive
same,growth inhibition (GI),COLO 205,inactive
same,growth inhibition (GI),PC-3,inactive
same,growth inhibition (GI),NCI-H460,inactive
same,growth inhibition (GI),SF-268,inactive
same,growth inhibition (GI),LOX IMVI,inactive
same,growth inhibition (GI),OVCAR-4,inactive
same,growth inhibition (GI),MDA-MB-468,inactive
same,zone of inhibition at 200 µg/disc,Candida albicans,8 mm
same,growth inhibition (GI),NCI-H23,inactive
same,growth inhibition (GI),OVCAR-8,inactive
same,growth inhibition (GI),NCI-H226,inactive
same,zone of inhibition at 200 µg/disc,Bacillus subtilis,8 mm
same,growth inhibition (GI),RPMI-8226,inactive
same,growth inhibition (GI),SNB-19,inactive
same,growth inhibition (GI),KM12,inactive
same,growth inhibition (GI),SR,inactive
same,growth inhibition (GI),NCI-H522,inactive
same,growth inhibition (GI),RXF 393,inactive
same,growth inhibition (GI),SW-620,inactive
same,growth inhibition (GI),Hs-578T,inactive
same,growth inhibition (GI),UACC-62,inactive
same,growth inhibition (GI),786-0,inactive
same,growth inhibition (GI),HOP-92,inactive

# From ChEMBL document CHEMBL3352542, “Synthesis, biological evaluation and molecular modeling study of 2-(1,3,4-thiadiazolyl-thio and 4-methyl-thiazolyl-thio)-quinazolin-4-ones as a new class of DHFR inhibitors” (Bioorg Med Chem Lett, 2014)
